This is an account of results in PMC6595003, “Insights into real-time chemical processes in a calcium sensor protein-directed dynamic library” (Nature Communications, 2019).

In one data set the target is T1, NCS-1/Ric8a interaction (Homo sapiens, UniProt P62166).
T1 construct: expressed in transfected cells; host or cells: HEK293 cells (Dharmacon)
Description: Co-IP binding assay of human NCS-1 and V5-tagged Ric8a in transfected HEK cells. It counts as cell-based. The settings on record: compound 20 μM; for modulation of the NCS-1/Ric8a binding: compared with DMSO (basal binding 100%); for Densitometry of V5-Ric8a co-immunoprecipitated with NCS-1, exp4: DMSO in the same experiment 3222255; for Densitometry of V5-Ric8a co-immunoprecipitated with NCS-1, exp3: DMSO in the same experiment 4613104; for Densitometry of V5-Ric8a co-immunoprecipitated with NCS-1, exp2: DMSO in the same experiment 9508518; for Densitometry of V5-Ric8a co-immunoprecipitated with NCS-1, exp1: DMSO in the same experiment 19247016. An excerpt: (§1) Mean ± SD from three independent experiments. The curves represent the least squares fitting of the experimental data to a 1:1 stoichiometry. To properly compare the different curves, intensities were normalized and represented. […] Input represents 1/10 cell lysates before IP. Quantifications of each lane from four experiments are shown below the blots. Bars represent percentage of NCS-1/ Ric8a binding (mean ± SD) normalized to DMSO. […] CNS + (green) for Pe > 4.47 × 10^−6 cm s^−1, CNS- (red) for compounds with Pe < 4.47 × 10^–6 cm s^−1. […] Mean ± SD from three independent experiments. […] Then, the percentage of picnotic bodies over the total nuclei was analyzed. Mean ± SD from three independent experiments. Paired two-tailed Student’s test ***P˂0.001; **P < 0.01; *P < 0.05. Source data are provided as a Source Data file. IP immunoprecipitation, WB western blot
Binding assays with NCS-1 and Ric8a in co-transfected HEK cells were carried out to study the modulation effect of compounds 3a, 3b and 3d in the protein-protein interaction (Fig. 6b).
hNCS-1 and V5-tagged hRic8a were co-transfected into HEK293 cells (Dharmacon) using Lipofectamine 2000 (Invitrogen)[13]. After 24 h, after transfection, DMSO alone or the compounds dissolved in DMSO (20 μM) were added to the culture cells. Then, 24 h after transfection, cells were lysed with Lysis buffer (150 mM NaCl, 1.0% Nonidet P-40, 50 mM Tris, pH 8.0) in the presence of the compounds (20 μM), whose concentration was maintained throughout the immunoprecipitation assay. Precleared lysates were incubated overnight (12 h) at 4 °C with mouse anti-NCS-1 (1:500; Cell Signaling). Samples were subsequently incubated overnight with Protein-G-Sepharose (Sigma-Aldrich), washed and eluted from the Sepharose. Samples were analyzed by Western blot following standard procedures. […] Original representative western blots are found in Source Data file.

In another data set the target is T2, dNCS-1 (Drosophila melanogaster, UniProt Q9VWX8).
T2 construct: made in house; host or cells: E. coli
T2 sequence (Q9VWX8 1-187): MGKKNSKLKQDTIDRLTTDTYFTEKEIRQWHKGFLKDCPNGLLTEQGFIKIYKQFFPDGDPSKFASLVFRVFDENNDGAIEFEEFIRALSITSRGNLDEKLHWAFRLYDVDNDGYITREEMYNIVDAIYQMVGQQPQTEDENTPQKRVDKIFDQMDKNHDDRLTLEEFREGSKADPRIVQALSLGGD
Description: Protein-directed DCL, HPLC-MS relative peak area with and without dNCS-1. The settings on record: for RPA, Blank DCL / RPA, Templated DCL: as fraction of total area; for RPA, Templated DCL: with dNCS-1; for RPA (%) with protein (templated DCL): relative peak area in presence of dNCS-1; for RPA (%) without protein (blank DCL): relative peak area, sum of all peak areas set to 100%; for RPA (%), Blank DCL: sheet Supplementary Figure 10; for RPA (%), Templated DCL: sheet Supplementary Figure 10, with dNCS-1. The protocol:
The reversibility of the DCL was evident, since an identical equilibrium distribution to that shown in Fig. 4a was obtained when two different starting points were employed. The observed degree of amplification was 3b > 3e ≥ 3d > 3a. The precise composition of the DCL (with and without dNCS-1), was assessed by measuring the relative peak area (RPA). Indeed, the normalized change of RPA was used to quantify the protein influence in the final outcome (Supplementary Figs. 9, 10 and Supplementary Tables 1, 2 and 3)[28]. […] Note that compounds 3a–3e can exist as E/Z isomers of the C = N bond. […].
Aldehyde 1 (1.2 μL, 50 mM, DMSO), the five acylhydrazides 2a–2e (5 × 3.6 μL, 50 mM, DMSO), p-anisidine (1 μL, 12 M, DMSO) and buffer 20 mM Tris, 0.5 M NaCl and 1 mM CaCl2, 1 mM DTT at pH 7.4 (750 μL) in 3.3 % DMSO. The mixture was stabilized in 5 h at 4 °C. HPLC analysis was performed.
Aldehyde 1 (1.2 μL, 50 mM, DMSO), the five acylhydrazides 2a–2e (5 × 3.6 μL, 50 mM, DMSO), p-anisidine (1 μL, 12 mM, DMSO) and dNCS-1 in buffer 20 mM Tris, 0.5 M NaCl and 1 mM CaCl2, 1 mM DTT at pH 7.4 (66.7 μM, 750 μL, 1 eq.). The experiment is in 3.3% DMSO. The mixture was stabilized for 5 h at 4 °C. Then, dNCS-1 was removed by ultrafiltration using an Amicon Ultra filter (0.5–10 KDa). HPLC analysis was performed and the traces were compared with the blank composition.
Supplementary Figure 9. Relative Peak Area of the DCL with and without dNCS1. Aldehyde
1 (1.2 µL, 50 mM), 2a-e (3.6 µL, 50 mM), catalyst (1 µL, 12 M), dNCS-1:1 [1:1], tris buffer (20
mM, pH 7.4), 1 mM CaCl2, 0.5 M NaCl, 1 mM DTT, T = 4 °C, 2% DM SO. Mean relative peak
area (RPA) of each acylhydrazone of the library in the absence (blank) and presence of dNCS-1.
Error bars indicate standard deviation (SD) over three experiments. The calculation is set by the
sum of all peak areas to 100% and assigning each peak its percentage. Source data are provided
R P A N o rm aliz ed V a riation
Supplementary Figure 10. RPA normalized of variation of DCL with and without dNCS1.
Aldehyde 1 (1.2 µL, 50 mM), 2a-e (3.6 µL, 50 mM), catalyst (1 µL, 12 M), dNCS-1:1 [1:1], tris
buffer (20 mM, pH 7.4), 1 mM CaCl2, 0.5 M NaCl, 1 mM DTT, T = 4 °C, 2% DM SO. Error
bars indicate SD over three experiments. Source data are provided as a Source Data file.

Data set [1] deals with Cortical neurons from E14 wild-type mice. Put plainly: Toxicity in primary cultured neurons (percentage of picnotic bodies). It counts as cell-based. The settings on record: 24 h.
Excerpt: as §1
Finally, cell toxicity in neurons was quantified as percentage of picnotic bodies for 3b (Fig. 6d).
Cortical neurons were obtained from E14 wt mice (C57BL6J). Mice were maintained in accordance to European law and following Hospital Ramón y Cajal´s animal guidelines. […] Three independent experiments counting cells from three different wells per concentration were performed. To analyzed cell death, neurons were fixed and stained with DAPI.

Values joined by “and” are separate entries in the source; they are usually repeats but may differ in a detail not shown here. Identical values can stand only once. “Also recorded” adds a separate entry of the source.

T1 sequence (P62166 2-190 limits assumed): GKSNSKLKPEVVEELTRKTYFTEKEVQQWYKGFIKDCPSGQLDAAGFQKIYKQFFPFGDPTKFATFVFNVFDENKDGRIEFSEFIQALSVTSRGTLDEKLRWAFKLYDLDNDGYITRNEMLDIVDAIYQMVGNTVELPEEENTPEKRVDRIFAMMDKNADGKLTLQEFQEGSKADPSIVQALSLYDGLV

In the case of `O=C(Cc1c[nH]c2ccccc12)NN=Cc1ccc([N+](=O)[O-])c(O)c1` (mixture of isomers) [3b], on NCS-1/Ric8a interaction, the “modulation of the NCS-1/Ric8a binding” value is listed as “strong binding; also recorded: promote the stabilization of the NCS-1/Ric8a interaction”; the “Densitometry of V5-Ric8a co-immunoprecipitated with NCS-1, exp4” value (“Densitometry … exp4” below) was found to be 9362004; the “Densitometry of V5-Ric8a co-immunoprecipitated with NCS-1, exp3” value (shortened to “Densitometry … exp3”) is given as 7268347; the “Densitometry of V5-Ric8a co-immunoprecipitated with NCS-1, exp2” value (“Densitometry … exp2” for short) amounted to 15828581. Also, the “Densitometry of V5-Ric8a co-immunoprecipitated with NCS-1, exp1” value (“Densitometry … exp1” below) at NCS-1/Ric8a interaction stood at 32007200. Moreover, on dNCS-1, the “RPA, Blank DCL” value is recorded as 0.1921; the “RPA, Templated DCL” value is recorded as 0.2944; the “RPA (%) with protein (templated DCL)” value is 29.4% and 29.4401%; the “RPA (%) without protein (blank DCL)” value was 19.2% and 19.208%. On dNCS-1, the RPA (%), Blank DCL was 19.2% and the RPA (%), Templated DCL turned out to be 29.4%. In data set [1] (0.2 μM), the “percentage of picnotic bodies, % exp 2” value was determined as 12%; the “percentage of picnotic bodies, % exp 3” value is given as 10%; the “percentage of picnotic bodies, % exp.1” value came to 10.1%. The “percentage of picnotic bodies over total nuclei, average” value (shortened to “percentage of picnotic bodies … average”) in data set [1] (0.2 μM, DMSO 8.4) is listed as 10.7%. In data set [1] (2 μM), the “percentage of picnotic bodies, % exp 2” value was determined as 10%; the “percentage of picnotic bodies, % exp 3” value is reported as 10%; the “percentage of picnotic bodies, % exp.1” value came to 13.4%. Moreover, the “percentage of picnotic bodies … average” value in data set [1] (2 μM, DMSO 8.06667) is recorded as 11.1333%. Also, in data set [1] (10 μM), the “percentage of picnotic bodies, % exp 2” value worked out at 12.5%; the “percentage of picnotic bodies, % exp 3” value was found to be 15%; the “percentage of picnotic bodies, % exp.1” value is reported as 14.3%. The “percentage of picnotic bodies … average” value in data set [1] (10 μM, DMSO 12.1667) is on record as 13.9333%. Also, in data set [1] (20 μM), the “percentage of picnotic bodies, % exp 2” value is given as 17.5%; the “percentage of picnotic bodies, % exp 3” value is on record as 22.6%; the “percentage of picnotic bodies, % exp.1” value is recorded as 15.3%. In data set [1] (20 μM, DMSO 12), the “percentage of picnotic bodies … average” value was determined as 18.4667%. Moreover, the “cell toxicity in neurons compared with vehicle DMSO” value in data set [1] (0.2, 2, 10, 20 μM) is reported as “no significant differences”.

Regarding `O=C(NN=Cc1ccc([N+](=O)[O-])c(O)c1)C(O)c1ccccc1` (mixture of isomers) [3d], on NCS-1/Ric8a interaction, the “modulation of the NCS-1/Ric8a binding” value is “strong binding; also recorded: promote the stabilization of the NCS-1/Ric8a interaction”; the “Densitometry … exp4” value is reported as 6181447; the “Densitometry … exp3” value was 9737953; the “Densitometry … exp2” value was 13428024. Further, at NCS-1/Ric8a interaction, the “Densitometry … exp1” value was 25716501. At dNCS-1, the “RPA, Blank DCL” value was 0.1114; the “RPA, Templated DCL” value is listed as 0.0839; the “RPA (%) with protein (templated DCL)” value is 8.4% and 8.39%; the “RPA (%) without protein (blank DCL)” value is 11.1% and 11.1444%. For the same compound, on dNCS-1, the RPA (%), Blank DCL is 11.1% and the RPA (%), Templated DCL turned out to be 8.39%.

`O=C(N/N=C/c1ccc([N+](=O)[O-])c(O)c1)c1ccco1` [3a]: at NCS-1/Ric8a interaction, the “modulation of the NCS-1/Ric8a binding” value is recorded as “reduced binding; also recorded: inhibitor similar to CPZ”; the “Densitometry … exp4” value was determined as 1982719; the “Densitometry … exp3” value was determined as 1649426; the “Densitometry … exp2” value was 4838154. Moreover, the “Densitometry … exp1” value on NCS-1/Ric8a interaction worked out at 13971167. In addition, at dNCS-1, the “RPA, Blank DCL” value is 0.2727; the “RPA, Templated DCL” value was found to be 0.1875; the “RPA (%) with protein (templated DCL)” value was 18.8% and 18.7508%; the “RPA (%) without protein (blank DCL)” value was 27.3% and 27.2702%. Besides, on dNCS-1, the RPA (%), Blank DCL is 27.3% and the RPA (%), Templated DCL stood at 18.8%.
